How the values were obtained:
BRD4 (BDI_K57-E168) = target: T1, BRD4 (BDI_K57-E168) (Homo sapiens, UniProt O60885); assay: TR-FRET bromodomain binding assay, first bromodomain of BRD4; conditions: His-tagged BD1, 100 nM Alexa647 probe; TR-FRET protocol A-E given per row
T1 construct: BD1: amino acids K57-E168; made in house
Summary of the method: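 His-tagged BRD4 BD1 (K57-E168), 8 nM, with 1 nM Eu-anti-His antibody and 100 nM Alexa647-labelled BET-inhibitor probe in pH 6.0 phosphate buffer, 2% DMSO. TR-FRET read after 1 h at room temperature. IC50 from 4-parameter fit, converted to Ki using probe Kd and concentration.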

[1] = test system: LPS induced IL-6 production; assay: LPS (lipopolysaccharide) induced IL-6 production mouse assay; assay type: in vivo; conditions: read-out: Inhibition of LPS induced IL-6 production, % inhibition at 3 mg/kg, 3 mg/kg oral, one hour before LPS 2.5 mg/kg i.p., serum IL-6 2 hours after LPS, SCID female mice, all p < 0.05
Method: Compounds of the Examples listed in Table 2 were assayed for their ability to inhibit LPS (lipopolysaccharide) induced IL-6 (Interleukin-6) production in mice. Fox Chase SCID® female mice (Charles Rivers Labs, 5 per group) received an intraperitoneal challenge of lipopolysaccharide (2.5 mg/kg, L2630 E. coli 0111:B4) one hour after oral administration of compounds. Mice were euthanized 2 hours after lipopolysaccharide injection, blood was removed by cardiac puncture, and then the serum harvested from the blood samples was frozen at −80° C. On the day of the assay the serum samples were brought to room temperature and then diluted 1:20 in phosphate-buffered saline containing 2% bovine serum albumin. Interleukin-6 measurements were performed using a cytokine assay from Meso Scale Discovery (Gaithersburg, Md.) for mouse serum analysis according to the manufacturer's protocol and read on a SECTOR Imager 6000 (Meso Scale Discovery, Gaithersburg, Md.) instrument. Statistical analysis was performed using Prism software (version 5.0) incorporating Dunnett's one way ANOVA. The IL-6 mean and standard deviation of the group of vehicle treated animals were compared with the IL-6 mean and standard deviation of the group treated with drug. A p value <0.05 means that there is less than a 5% probability that the mean values in the two groups are equal.

[2] = test system: breast cancer cell line MX-1; assay: MX-1 cell line proliferation assay; assay type: cell-based; conditions: Homo sapiens, MX1, 72 h, MX-1 cells, 3-day proliferation assay, Cell Titer Glo; read-out: Cellular proliferation EC50
Summary of the method: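 Cells seeded at 5000/well in RPMI 1640 with 10% FBS, allowed to adhere overnight at 37 °C, then exposed to compound at final 0.0001–3 μM for 3 days. Viability read by Cell Titer Glo luminescence, normalized to DMSO controls; EC50 from sigmoidal curve fit.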

BRD4 (BDII_E352-M457) = target: T2, BRD4 (BDII_E352-M457) (Homo sapiens, UniProt O60885); assay: TR-FRET bromodomain binding assay, second bromodomain of BRD4; conditions: His-tagged BD2, 30 nM Alexa647 probe; TR-FRET protocol A-E given per row
T2 construct: proliferation; Protocol; made in house
Summary of the method: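 His-tagged BRD4 BD2 ([…]) competed against an Alexa647-labelled BET-inhibitor probe in TR-FRET. Buffer was 20 mM sodium phosphate pH 6.0, 50 mM NaCl, 1 mM EDTA, 0.01% Triton X-100, 1 mM DTT, with method D DMSO series of 2.5 mM–800 nM (stock range). IC50 from 4-parameter fit, Ki from probe Kd and concentration.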

Row | SMILES | Ki (BRD4 (BDI_K57-E168)) [nM] | EC50 [2] [nM] | Ki (BRD4 (BDII_E352-M457)) [nM] | inhibition in vivo at 3 mg/kg [1] [%]
1 | Cn1cc(-c2cc(NS(C)(=O)=O)c(F)cc2Oc2ccc(F)cc2F)c2cc[nH]c(=O)c21 [Example 11, N-[4-(2,4-difluorophenoxy)-2-fluoro-5-(1-methyl-7-oxo-6,7-dihydro-1H-pyrrolo[2,3-c]pyridin-3-yl)phenyl]methanesulfonamide] | 8.9 | 37 | 31 | 66
2 | Cn1cc(-c2cc(NS(C)(=O)=O)ccc2Oc2ccc(C#N)cc2)c2cc[nH]c(=O)c21 [Example 16, N-[4-(4-cyanophenoxy)-3-(1-methyl-7-oxo-6,7-dihydro-1H-pyrrolo[2,3-c]pyridin-3-yl)phenyl]methanesulfonamide] | 2.1 | 59 | 27 | 69
3 | Cn1cc(-c2cc(S(C)(=O)=O)ccc2OC2CCC(F)(F)CC2)c2cc[nH]c(=O)c21 [Example 25, 3-{2-[(4,4-difluorocyclohexyl)oxy]-5-(methylsulfonyl)phenyl}-1-methyl-1,6-dihydro-7H-pyrrolo[2,3-c]pyridin-7-one] | 14 | 80 | 60 | 62
4 | Cn1cc(-c2cc(S(C)(=O)=O)ccc2OCCC2CC2)c2cc[nH]c(=O)c21 [Example 32, 3-[2-(2-cyclopropylethoxy)-5-(methylsulfonyl)phenyl]-1-methyl-1,6-dihydro-7H-pyrrolo[2,3-c]pyridin-7-one] | 6.1 | 127 | 11 | 33
5 | CCS(=O)(=O)Cc1ccc(Oc2ccc(F)cc2F)c(-c2cn(C)c3c(=O)[nH]ccc23)c1 [Example 53, 3-{2-(2,4-difluorophenoxy)-5-[(ethylsulfonyl)methyl]phenyl}-1-methyl-1,6-dihydro-7H-pyrrolo[2,3-c]pyridin-7-one] | 3.2 | 39 | 6.6 | 74
6 | Cn1cc(-c2cc(CS(C)(=O)=O)cnc2Oc2ccc(F)cc2F)c2cc[nH]c(=O)c21 [Example 60, 3-{2-(2,4-difluorophenoxy)-5-[(methylsulfonyl)methyl]pyridin-3-yl}-1-methyl-1,6-dihydro-7H-pyrrolo[2,3-c]pyridin-7-one] | 16 | 37 | 6.2 | 62
7 | Cn1cc(-c2cc(CS(C)(=O)=O)cc(C3CC3)c2Nc2ccc(F)cc2F)c2cc[nH]c(=O)c21 [Example 202, 3-{3-cyclopropyl-2-[(2,4-difluorophenyl)amino]-5-[(methylsulfonyl)methyl]phenyl}-1-methyl-1,6-dihydro-7H-pyrrolo[2,3-c]pyridin-7-one] | 5.82 | 98.3 | 16.3 | –
8 | Cn1cc(-c2cc(CS(C)(=O)=O)ccc2Nc2ccccn2)c2cc[nH]c(=O)c21 [Example 203, 1-methyl-3-{5-[(methylsulfonyl)methyl]-2-(pyridin-2-ylamino)phenyl}-1,6-dihydro-7H-pyrrolo[2,3-c]pyridin-7-one] | 13.8 | 118 | 43.9 | –

Second part, led by results:

Row | Ki (BRD4 (BDI_K57-E168)) [nM] | EC50 [2] [nM] | Ki (BRD4 (BDII_E352-M457)) [nM] | SMILES | inhibition in vivo at 3 mg/kg [1] [%]
9 | 1.42 | 29.9 | 13.5 | CCS(=O)(=O)Nc1ccc(Oc2ccc(F)cc2F)c(-c2cn(C)c3c(=O)[nH]c(C(=O)NCCN(C)C)cc23)c1 [Example 188, 3-{2-(2,4-difluorophenoxy)-5-[(ethylsulfonyl)amino]phenyl}-N-[2-(dimethylamino)ethyl]-1-methyl-7-oxo-6,7-dihydro-1H-pyrrolo[2,3-c]pyridine-5-carboxamide] | –
10 | 1.95 | 77.9 | 8.82 | CCS(=O)(=O)Nc1ccc(Oc2ccc(F)cc2F)c(-c2cn(C)c3c(=O)[nH]c(C(=O)NCC#N)cc23)c1 [Example 189, N-(cyanomethyl)-3-{2-(2,4-difluorophenoxy)-5-[(ethylsulfonyl)amino]phenyl}-1-methyl-7-oxo-6,7-dihydro-1H-pyrrolo[2,3-c]pyridine-5-carboxamide] | –
11 | 2.01 | 82 | 3.85 | CCS(=O)(=O)Nc1ccc(Oc2ccc(F)cc2F)c(-c2cn(C)c3c(=O)[nH]c(C(=O)NCCCO)cc23)c1 [Example 190, 3-{2-(2,4-difluorophenoxy)-5-[(ethylsulfonyl)amino]phenyl}-N-(3-hydroxypropyl)-1-methyl-7-oxo-6,7-dihydro-1H-pyrrolo[2,3-c]pyridine-5-carboxamide] | –
12 | 0.9 | 10.7 | 1.3 | CCS(=O)(=O)Nc1ccc(Oc2ccc(F)cc2F)c(-c2cn(C)c3c(=O)[nH]c(C(=O)NCc4cccnc4)cc23)c1 [Example 192, 3-{2-(2,4-difluorophenoxy)-5-[(ethylsulfonyl)amino]phenyl}-1-methyl-7-oxo-N-(pyridin-3-ylmethyl)-6,7-dihydro-1H-pyrrolo[2,3-c]pyridine-5-carboxamide] | –
13 | 4.3 | 111 | 41.3 | CCS(=O)(=O)Nc1ccc(Oc2ccc(F)cc2F)c(-c2cn(C)c3c(=O)[nH]c(C(=O)N4CCCC4)cc23)c1 [Example 193, N-{4-(2,4-difluorophenoxy)-3-[1-methyl-7-oxo-5-(pyrrolidin-1-ylcarbonyl)-6,7-dihydro-1H-pyrrolo[2,3-c]pyridin-3-yl]phenyl}ethanesulfonamide] | –
14 | 10.4 | 162 | 12.7 | CCS(=O)(=O)Nc1ccc(Oc2ccc(F)cc2F)c(-c2cn(C)c3c(=O)[nH]c(C(=O)NCC4CCCC4)cc23)c1 [Example 195, N-(cyclopentylmethyl)-3-{2-(2,4-difluorophenoxy)-5-[(ethylsulfonyl)amino]phenyl}-1-methyl-7-oxo-6,7-dihydro-1H-pyrrolo[2,3-c]pyridine-5-c arboxamide] | –
15 | 1.66 | 30.9 | 9.64 | CCS(=O)(=O)Nc1ccc(Oc2ccc(F)cc2F)c(-c2cn(C)c3c(=O)[nH]c(C(=O)NCCN4CCOCC4)cc23)c1 [Example 196, 3-{2-(2,4-difluorophenoxy)-5-[(ethylsulfonyl)amino]phenyl}-1-methyl-N-[2-(morpholin-4-yl)ethyl]-7-oxo-6,7-dihydro-1H-pyrrolo[2,3-c]pyridine-5-carboxamide] | –
16 | 2.05 | 67.6 | 4.23 | CCS(=O)(=O)Nc1ccc(Oc2ccc(F)cc2F)c(-c2cn(C)c3c(=O)[nH]c(C(=O)NCCN4CCN(C)CC4)cc23)c1 [Example 197, 3-{2-(2,4-difluorophenoxy)-5-[(ethylsulfonyl)amino]phenyl}-1-methyl-N-[2-(4-methylpiperazin-1-yl)ethyl]-7-oxo-6,7-dihydro-1H-pyrrolo[2,3-c]pyridine-5-carboxamide] | –
17 | 3.63 | 36.8 | 6.5 | CCS(=O)(=O)Nc1ccc(Oc2ccc(F)cc2F)c(-c2cn(C)c3c(=O)[nH]c(C(=O)NCC4CCOC4)cc23)c1 (stereo not drawn) [Example 199, 3-{2-(2,4-difluorophenoxy)-5-[(ethylsulfonyl)amino]phenyl}-1-methyl-7-oxo-N-(tetrahydrofuran-3-ylmethyl)-6,7-dihydro-1H-pyrrolo[2,3-c]pyridine-5-carboxamide] | –
18 | 3.24 | 43.6 | 4.56 | CCS(=O)(=O)Nc1ccc(Oc2ccc(F)cc2F)c(-c2cn(C)c3c(=O)[nH]c(C(=O)NC)cc23)c1 [Example 200, 3-{2-(2,4-difluorophenoxy)-5-[(ethylsulfonyl)amino]phenyl}-N,1-dimethyl-7-oxo-6,7-dihydro-1H-pyrrolo[2,3-c]pyridine-5-carboxamide] | –
